# Values of other authors as cited in patent US20070287755A1, “Orally administered compound for preventing neonatal hemorrhages, in a tardy form, caused by a K-vitamin dificiency” (priority 2006, published 2007).
# What was measured:
# [1] = tested on: tardy hemorrhagic disease; conditions: repeated oral doses of 25 micrograms/day, breast-fed newborn babies
# [2] = human person, after 72 hours
# [3] = only if a suitable amount of biliar salts is present; lymphatic ways, proximal small intestine
presence in blood [2],absorption through the gastrointestinal tract [3],Molecule,prophylaxis of tardy hemorrhagic disease [1]
practically absent in blood,–,K-vitamin,efficient for a full prophylaxis
–,nearly fully absorbed,CC1=C(C/C=C(\C)CCC[C@H](C)CCC[C@H](C)CCCC(C)C)C(=O)c2ccccc2C1=O [Phytonadion],–
